From publication PMC6593967, “The development and prevalidation of an in vitro mutagenicity assay based on MutaMouse primary hepatocytes, Part II: Assay performance for the identification of mutagenic chemicals” (Environmental and Molecular Mutagenesis, 2019)
“And” between values parts separate entries of the source, which are not always exact repeats. Equal entries are not always repeated. “Also recorded” adds a separate entry of the source. Where two headings read alike, the source gives them in different places.

What was measured:
[1] = system: pUR288 lacZ Plasmid Mouse PHs; conditions: cited from earlier work; for Response in pUR288 lacZ Plasmid Mouse PHs gene mutation assay: ref citations provided
[2] = system: MutaMouse FE1 lung epithelial cells; conditions: cited from earlier work
MutaMouse = conditions: cited from earlier work; for Relative potency in the MutaMouse gene mutation assay in vivo: ref Gocke et al., 2009, Luijten et al., 2016, Hanna, 2018, Long et al.
[3] = system: MutaMouse primary hepatocytes (PHs); assay: MutaMouse PH in vitro gene mutation assay (lacZ mutant frequency, P-Gal positive selection); conditions: for Significant MF increase over concurrent vehicle control at any concentration: Bonferroni-corrected contrasts; for Overall treatment effect on MF (Chi-squared test): P < 0.05 significant
[4] = system: MutaMouse primary hepatocytes (PHs); assay: Cytotoxicity by relative increase in nuclear counts (RINC), flow cytometry; assay type: cell-based, mouse
Description: Cytotoxicity was measured using the relative increase in nuclear counts (RINC) metric. […] To normalize nuclei counts, 150 μL of a suspension of 6 μm fluorescently labeled polystyrene microspheres was added to each sample of lysate. […] Each microsphere‐lysate sample was diluted 1:10 prior to flow cytometric analysis. Data were acquired using a BD Biosciences FACScalibur flow cytometer (BD Biosciences, Mississauga, Ontario) equipped with a 488 nm laser. Instrumentation settings and data acquisition were facilitated using CellQuest Pro software (BD Biosciences). Data analysis was performed using Flowing Software version 2.5.1 (Turku Centre for Biotechnology, Turku, Finland). SYTOX® green and bead fluorescence emission were captured in the FL1 channel (530/30 band‐pass filter). Events were scored as nuclei following the application of key criteria (i.e., within a side scatter (SSC) vs forward scatter (FSC) region, within a region that excludes doublets, and within an FSC vs. FL1 region).

[5] = ref NTP, 1982, 1986, Kirkland et al., 2008, Fowler et al., 2012a, 2016; cited from earlier work
[6] = system: p53‐deficient hamster cells; conditions: ref NTP, 1982, 1986, Kirkland et al., 2008, Fowler et al., 2012a, 2016; cited from earlier work
[7] = system: p53‐functional human cells; conditions: ref NTP, 1982, 1986, Kirkland et al., 2008, Fowler et al., 2012a, 2016; cited from earlier work
[8] = system: hematopoietic tissues (e.g., the bone marrow and blood); conditions: cited from earlier work
tk locus = conditions: S9; PhIP: human TK6 assay; 3-NBA: tk locus in human lymphoblast lines h1A1v2 and MCL-5; ref citations provided; cited from earlier work
liver = system: liver; parameters: method as in Rompelberg et al., 1996a; Rompelberg et al., 1996b; conditions: ref Rompelberg et al., 1996a, 1996b; cited from earlier work
[9] = 6 h exposure, 72 h sampling, no exogenous S9
[10] = BMR 100% (twofold MF increase), PROAST covariate analysis
[11] = lower limit of 90% confidence interval of BMD100
[12] = maximum response, concentration not given
[13] = upper limit of 90% confidence interval of BMD100
[14] = ref White et al., 2003, Hanna, 2018
[15] = at or above top concentrations tested

Molecule: CCN(N=O)C(N)=O [ENU, N‐ethyl‐N‐nitrosourea]
- MF fold increase in pUR288 lacZ plasmid mouse PHs ([1]; ref Luijten et al., 2016): ~ 4 fold
- Response in pUR288 lacZ Plasmid Mouse PHs gene mutation assay [1]: Positive
- Response in MutaMouse FE1 gene mutation assay ([2]; S9, ref citations provided): Positive (−S9)
- MF fold increase in MutaMouse FE1 cells ([2]; ref White et al., 2003): ~ 6 fold
- Relative potency in the MutaMouse gene mutation assay in vivo (MutaMouse; liver and bone marrow): more potent than BaP
- Relative potency in the MutaMouse gene mutation assay in vivo (MutaMouse; small intestine, versus BaP): of equivalent potency
- MF fold-increase over control ([3]; 1,000 μg/mL, 6 h exposure, 72 h sampling): 4.2 fold
- Response in MutaMouse PH gene mutation assay [3, 9]: Positive
- BMD100, Exponential model [3, 10]: 76 µg/mL
- BMD100, Hill model [3, 10]: 76 µg/mL
- BMDL, Exponential model [3, 11]: 36.6 µg/mL
- BMDL, Hill model [3, 11]: 36.6 µg/mL
- MF fold increase over control in MutaMouse PHs [3, 12]: 4.2 fold
- BMDU, Exponential model [3, 13]: 178 µg/mL
- BMDU, Hill model [3, 13]: 170 µg/mL

Molecule: Cn1c(N)nc2ncc(-c3ccccc3)cc21 [PhIP, 2‐amino‐1‐methyl‐6‐phenylimidazo[4,5‐b]pyridine]
- Response in MutaMouse FE1 gene mutation assay ([2]; S9, ref citations provided): Positive (+S9)
- MF fold increase in MutaMouse FE1 cells [2, 14]: ~ 5.5 fold
- MF fold-increase over control ([3]; 10 μg/mL, 6 h exposure, 72 h sampling): 3.7 fold
- Response in MutaMouse PH gene mutation assay [3, 9]: positive responses
- BMD100, Exponential model [3, 10]: 2.6 µg/mL
- BMD100, Hill model [3, 10]: 2.6 µg/mL
- BMDL, Exponential model [3, 11]: 1.05 µg/mL
- BMDL, Hill model [3, 11]: 1.05 µg/mL
- MF fold increase over control in MutaMouse PHs [3, 12]: 3.7 fold
- Relative mutagenic potency by BMD100 covariate analysis ([3]; ranking of positive chemicals): less potent than 3‐NBA and BaP
- BMDU, Exponential model [3, 13]: 7.8 µg/mL
- BMDU, Hill model [3, 13]: 7.05 µg/mL

Molecule: aflatoxin B1 [AFB1]
- RINC [4]: 0.6 and 0.3
- MF fold increase in MutaMouse FE1 cells [2]: ~ three
- Response in MutaMouse FE1 gene mutation assay [2]: Positive (±S9)
- BMD100, Exponential model [3]: 0.47 µg/mL
- BMD100, Hill model [3]: 0.47 µg/mL
- BMDL, Exponential model [3]: 0.193 µg/mL
- BMDL, Hill model [3]: 0.193 µg/mL
- BMDU, Exponential model [3]: 1.47 µg/mL
- BMDU, Hill model [3]: 1.47 µg/mL
- MF fold increase over control in MutaMouse PHs [3]: 3.6 fold
- MF fold-increase over control [3]: 3.6 fold and 2.5 fold
- Relative mutagenic potency by BMD100 covariate analysis [3]: most potent
- Response in MutaMouse PH gene mutation assay [3]: positive responses

Molecule: CC(C)(C)c1cc(O)ccc1O [TBHQ, tertiary butylhydroquinone]
- Cytotoxicity (RINC) in words [4]: relatively high RINC obtained at the top concentration
- Result in in vitro chromosome aberration test [5]: positive
- Result for micronucleus [6]: positive
- Result in in vitro micronucleus assay [7]: negative results
- Genotoxicity result in vivo ([8]; in vivo): negative results in vivo
- Response in MutaMouse PH gene mutation assay [3, 9]: Negative
- Significant MF increase over concurrent vehicle control at any concentration [3]: Neither TBHQ nor eugenol yielded a significant increase in MF

Molecule: COc1ccc2nc3cc(Cl)ccc3c(NCCCNCCCl)c2c1.Cl.Cl [ICR 191, 6‐chloro‐9‐[3‐(2‐chloroethylamino)propylamino]‐2‐methoxyacridine dihydrochloride]
- Response in MutaMouse PH gene mutation assay [3, 9]: negative result
- Significant MF increase over concurrent vehicle control at any concentration [3]: did not yield a significant increase in MF
- Overall treatment effect on MF (Chi-squared test) [3]: nor was a significant treatment effect detected

Molecule: OC[C@@H](O)[C@@H](O)[C@H](O)[C@H](O)CO [D‐Mannitol]
- Response in pUR288 lacZ Plasmid Mouse PHs gene mutation assay [1]: Negative
- Response in MutaMouse FE1 gene mutation assay ([2]; S9, ref citations provided): Negative (−S9)
- Response in MLA (tk locus): Negative (±S9)
- Response in MutaMouse PH gene mutation assay [3, 9]: Negative

Molecule: CN(C)N=O [DMN, dimethylnitrosamine]
- MF fold-increase over control ([3]; 200 μg/mL, 6 h exposure, 72 h sampling): 14.4 fold
- Response in MutaMouse PH gene mutation assay [3, 9]: positive responses
- BMD100, Exponential model [3, 10]: 7.6 µg/mL
- BMD100, Hill model [3, 10]: 7.6 µg/mL
- BMDL, Exponential model [3, 11]: 3.18 µg/mL
- BMDL, Hill model [3, 11]: 3.18 µg/mL
- MF fold increase over control in MutaMouse PHs [3, 12]: 14.4 fold
- Relative mutagenic potency by BMD100 covariate analysis ([3]; ranking of positive chemicals): less potent than 3‐NBA and BaP
- BMDU, Exponential model [3, 13]: 21.5 µg/mL
- BMDU, Hill model [3, 13]: 16.8 µg/mL

Molecule: C=CCc1ccc(O)c(OC)c1 [Eugenol]
- Cytotoxicity (RINC) in words [4, 15]: could not be tested at higher concentrations due to cytotoxicity; also recorded: too cytotoxic to test at higher concentrations
- Result in UDS assay (liver): negative results
- Result in in vitro chromosome aberration test [5]: positive
- Result for micronucleus [6]: positive
- Result in in vitro micronucleus assay [7]: negative results
- Genotoxicity result in vivo ([8]; data limited, mainly hematopoietic tissues, ref Kirkland et al., 2016): negative results in vivo
- Result in in vivo MutaMouse assay (MutaMouse; liver, ref Rompelberg et al., 1996a, Rompelberg et al., 1996b): negative results
- Response in MutaMouse PH gene mutation assay [3, 9]: equivocal
- Significant MF increase over concurrent vehicle control at any concentration [3]: absence of a significant response at any concentration tested; also recorded: Neither TBHQ nor eugenol yielded a significant increase in MF
- Overall treatment effect on MF (Chi-squared test) [3]: significant result for the overall treatment effect
- Overall treatment effect on MF (Chi-squared test) ([3]; listed as eugenol): significant treatment effect

Molecule: O=C1c2ccccc2-c2ccc([N+](=O)[O-])c3cccc1c23 [3‐NBA, 3‐nitrobenzanthrone]
- Cytotoxicity (RINC) in words [4, 15]: sharp increase in cytotoxicity
- Response in MutaMouse FE1 gene mutation assay ([2]; S9, ref citations provided): Positive (±S9)
- MF fold increase above solvent control in MutaMouse FE1 cells ([2]; ref Arlt et al., 2008): ~ five
- MF fold-increase over control ([3]; 0.5 μg/mL, 6 h exposure, 72 h sampling): 8.2 fold
- Response in MutaMouse PH gene mutation assay [3, 9]: positive results; also recorded: positive responses
- BMD100, Exponential model [3, 10]: 0.15 µg/mL
- BMD100, Hill model [3, 10]: 0.15 µg/mL
- BMDL, Exponential model [3, 11]: 0.0689 µg/mL
- BMDL, Hill model [3, 11]: 0.0689 µg/mL
- MF fold increase over control in MutaMouse PHs [3, 12]: 3.6 fold
- Relative mutagenic potency by BMD100 covariate analysis ([3]; ranking of positive chemicals): most potent
- BMDU, Exponential model [3, 13]: 0.373 µg/mL
- BMDU, Hill model [3, 13]: 0.363 µg/mL

Molecule: CC1(C)S[C@@H]2[C@H](NC(=O)[C@H](N)c3ccccc3)C(=O)N2[C@H]1C(=O)O [Ampicillin trihydrate]
- Response in MutaMouse PH gene mutation assay [3, 9]: Negative

Molecule: CC(=O)Nc1ccc2c(c1)Cc1ccccc1-2 [2‐AAF, 2‐acetylaminofluorene]
- Response in MutaMouse FE1 gene mutation assay ([2]; S9, ref citations provided): Positive (±S9)
- MF fold increase in MutaMouse FE1 cells [2, 14]: ~ 1.7 fold
- MF fold-increase over control ([3]; 5 μg/mL, 6 h exposure, 72 h sampling): 2.6 fold
- Response in MutaMouse PH gene mutation assay [3, 9]: positive responses
- BMD100, Exponential model [3, 10]: 1.9 µg/mL
- BMD100, Hill model [3, 10]: 1.9 µg/mL
- BMDL, Exponential model [3, 11]: 0.964 µg/mL
- BMDL, Hill model [3, 11]: 0.964 µg/mL
- MF fold increase over control in MutaMouse PHs [3, 12]: 2.6 fold
- Relative mutagenic potency by BMD100 covariate analysis ([3]; ranking of positive chemicals): less potent than 3‐NBA and BaP
- BMDU, Exponential model [3, 13]: 3.96 µg/mL
- BMDU, Hill model [3, 13]: 3.96 µg/mL
